Our source for the EC50 values is patent publication US10844049B2, “GLP-1R agonists and uses thereof” (QILU REGOR THERAPEUTICS INC., priority 2018, dated 2020).

Bounds are passed on as bounds.

Usually EC50 stands for the concentration at which the effect is half-maximal.

GLP1R, sequence (P43220 24-463): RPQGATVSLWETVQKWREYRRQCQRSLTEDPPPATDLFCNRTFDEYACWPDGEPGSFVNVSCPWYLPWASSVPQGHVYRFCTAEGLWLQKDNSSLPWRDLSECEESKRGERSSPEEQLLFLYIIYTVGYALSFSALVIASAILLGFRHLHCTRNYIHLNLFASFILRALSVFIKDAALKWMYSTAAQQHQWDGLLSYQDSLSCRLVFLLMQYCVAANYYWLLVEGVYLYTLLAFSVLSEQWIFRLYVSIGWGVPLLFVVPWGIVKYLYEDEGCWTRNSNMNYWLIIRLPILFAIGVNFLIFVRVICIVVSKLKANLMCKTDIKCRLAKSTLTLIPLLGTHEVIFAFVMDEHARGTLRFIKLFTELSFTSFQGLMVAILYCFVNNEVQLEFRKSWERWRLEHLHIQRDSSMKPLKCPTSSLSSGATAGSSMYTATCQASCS

The target in the experiment is GLP1R (Homo sapiens, UniProt P43220). Description: GLP1R cAMP HTRF assay, HEK293/GLP-1R/CRE/Luc (HEK293T cells). Format: cell-based. The settings on record: read-out: EC50. The method, boiled down:
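cAMP accumulation via HTRF after 30 min, 37 °C exposure of 1000 receptor-expressing cells/well to compound (0.5% DMSO final) in IBMX (500 μM)/0.1% BSA DPBS.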
(TR-FRET usually uses a lanthanide donor and a delayed reading to cut background.)
Regarding `CC#Cc1ccc(COc2cccc(C3=CCN(Cc4nc5ccc(C(=O)O)cc5n4C[C@@H]4CCO4)CC3)n2)c(F)c1` [Compound 107, (S)-2-((6-((2-fluoro-4-(prop-1-yn-1-yl)benzyl)oxy)-3′,6′-dihydro-[2,4′-pyridin]-1′(2′H)-yl)methyl)-1-(oxetan-2-ylmethyl)-1H-benzo[d]imidazole-6-carboxylic acid], the 50% effective concentration (EC50) is at most 15 nM.
Under `O=C(O)c1ccc2nc(CN3CC=C(c4cccc(OCc5ccc(C#CC6CC6)cc5F)n4)CC3)n(C[C@@H]3CCO3)c2c1` [Compound 108, (S)-2-((6-((4-(cyclopropylethynyl)-2-fluorobenzyl)oxy)-3′,6′-dihydro-[2,4′-bipyridin]-1′(2′H)-yl)methyl)-1-(oxetan-2-ylmethyl)-1H-benzo[d]imidazole-6-carboxylic acid] stands at most 15 nM.
As to `O=C(O)c1ccc2nc(CN3CC=C(c4cc(-c5ccccc5)cc(OCc5ccc(Cl)cc5F)n4)CC3)n(C[C@@H]3CCO3)c2c1` [Compound 109], the EC50 was at most 1000 nM.
Consider `Cc1c(C(=O)O)ccc2nc(CN3CC=C(c4cccc(OCc5ccc(Cl)cc5)n4)CC3)n(C[C@@H]3CCO3)c12` [Compound 110, (S)-2-((6-((4-chlorobenzyl)oxy)-3′,6′-dihydro-[2,4′-bipyridin]-1′(2′H)-yl)methyl)-7-methyl-1-(oxetan-2-ylmethyl)-1H-benzo[d]imidazole-6-carboxylic add], for which the EC50 is at most 15 nM.
On to `Cc1cc2nc(CN3CC=C(c4cccc(OCc5ccc(Cl)cc5)n4)CC3)n(C[C@@H]3CCO3)c2cc1C(=O)O` [Compound 111, (S)-2-((4-(6-(4-chlorobenzyloxy)pyridin-2-yl)-5,6-dihydropyridin-1(2H)-yl)methyl)-5-methyl-1-(oxetan-2-ylmethyl)-1H-benzo[d]imidazole-6-carboxylic acid], for which the EC50 was at most 15 nM.
As for `CC(c1ncco1)n1c(CN2CC=C(c3cccc(OCc4ccc(Cl)cc4F)n3)CC2)nc2ccc(C(=O)O)cc21` (stereo not shown) [Compound 112, 2-((6-((4-chloro-2-fluorobenzyl)oxy)-3′,6′-dihydro-[2,4′-bipyridin]-1′(2′H)-yl)methyl)-1-(1-(oxazol-2-yl)ethyl)-1H-benzo[d]imidazole-6-carboxylic acid], the EC50 is at most 1000 nM.
Under `O=C(O)c1ccc2nc(CN3CC=C(c4cccc(CCc5ccc(Cl)cc5F)n4)CC3)n(C[C@@H]3CCO3)c2c1` [Compound 113, (S)-2-((6-(4-chloro-2-fluorophenethyl)-3′,6′-dihydro-[2,4′-bipyridin]-1′(2′H)-yl)methyl)-1-(oxetan-2-ylmethyl)-1H-benzo[d]imidazole-6-carboxylic acid] stands at most 150 nM; under `O=C(O)c1ccc2nc(CN3CC=C(c4cccc(OCc5ccc(Cl)cc5Cl)n4)CC3)n(C[C@@H]3CCO3)c2c1` [Compound 114, (S)-2-((6-((2,4-dichlorobenzyl)oxy)-3′,6′-dihydro-[2,4′-bipyridin]-1′(2′H)-yl)methyl)-1-(oxetan-2-ylmethyl)-1H-benzo[d]imidazole-6-carboxylic add], at most 15 nM.
Consider `O=C(O)c1ccc2nc(CN3CC=C(c4cccc(OCc5ccc(Cl)c(Cl)c5)n4)CC3)n(C[C@@H]3CCO3)c2c1` [Compound 115, (S)-2-((6-((3,4-dichlorobenzyl)oxy)-3′,6′-dihydro[2,4′-bipyridin]-1′(2′H)-yl)methyl)-1-(oxetan-2-ylmethyl)-1H-benzo[d]imidazole-6-carboxylic add], for which the EC50 is at most 15 nM.
On to `O=C(O)c1ccc2nc(CN3CC=C(c4cccc(OCc5ccc(Cl)cn5)n4)CC3)n(C[C@@H]3CCO3)c2c1` [Compound 116, (S)-2-((6-((5-chloropyridin-2-yl)methoxy)-3′,6′-dihydro-[2H′-bipyridin]-1′(2′H)-yl)methyl)-1-(oxetan-2-ylmethyl)-1H-benzo[d]imidazole-6-carboxylic add], for which the concentration for a half-maximal effect (EC50) is at most 15 nM.
With `COc1ccc(COc2cccc(C3=CCN(Cc4nc5ccc(C(=O)O)cc5n4C[C@@H]4CCO4)CC3)n2)nc1` [Compound 117, (S)-2-((6-((5-methoxypyridin-2-yl)methoxy)-3′,6′-dihydro-[2,4′-bipyridin]-1′(2′H)-yl)methyl)-1-(oxetan-2-ylmethyl)-1H-benzo[d]imidazole-6-carboxylic add], the EC50 was at most 15 nM.
For the molecule `COc1ccc(COc2cccc(C3=CCN(Cc4nc5ccc(C(=O)O)cc5n4C[C@@H]4CCO4)CC3)n2)cc1` [Compound 118, (S)-2-((6-((4-methoxybenzyl)oxy)-3′,6′-dihydro-[2,4′-bipyridin]-1′(2H)-yl)methyl)-1-(oxetan-2-ylmethyl)-1H-benzo[d]imidazole-6-carboxylic acid], the EC50 is at most 15 nM.
Regarding `COc1ccc(COc2cccc(C3=CCN(Cc4nc5ccc(C(=O)O)cc5n4C[C@@H]4CCO4)CC3)n2)cn1` [Compound 119, (S)-2-((6-((6-methoxypyridin-3-yl)methoxy)-3′,6′-dihydro-[2,4′-bipyridin]-1(2′H)-yl)methyl)-1-(oxetan-2-ylmethyl)-1H-benzo[d]imidazole-6-carboxylic acid], the EC50 was at most 15 nM.
Take `O=C(O)c1ccc2nc(CN3CC=C(c4cccc(OCc5ccc(OC(F)(F)F)cc5)n4)CC3)n(C[C@@H]3CCO3)c2c1` [Compound 120, (S)-1-(oxetan-2-ylmethyl)-2-((6-((4-(trifluoromethoxy)benzyl)oxy)-3′,6′-dihydro-[2,4′-bipyridin]-1′(2′H)-yl)methyl)-1H-benzo[d]imidazole-6-carboxylic acid]: the EC50 was at most 15 nM.
Under `O=C(O)c1ccc2nc(CN3CC=C(c4cccc(OCc5ccc(OC(F)(F)F)nc5)n4)CC3)n(C[C@@H]3CCO3)c2c1` [Compound 121, (S)-1-(oxetan-2-ylmethyl)-2-((6-((6-(trifluoromethoxy)pyridin-3-yl)methoxy)-3′,6′-dihydro-[2,4′-bipyridin]-1′(2′H)-yl)methyl)-1H-benzo[d]imidazole-6-carboxylic acid] stands at most 150 nM; under `O=C(O)c1ccc2nc(CN3CC=C(c4ncc(F)c(NCc5ccc(Cl)cc5F)n4)CC3)n(C[C@@H]3CCO3)c2c1` [Compound 122, (S)-2-((4-(4-(4-chloro-2-fluorobenzylamino)-5-fluoropyrimidin-2-yl)-5,6-dihydropyridin-1(2H)-yl)methyl)-1-(oxetan-2-ylmethyl)-1H-benzo[d]imidazole-6-carboxylic acid], at most 150 nM.
In the case of `O=C(O)c1ccc2nc(CN3CC=C(c4ncc(F)c(OCc5ccc(Cl)cc5F)n4)CC3)n(C[C@@H]3CCO3)c2c1` [Compound 123], the EC50 is at most 15 nM.
Turning to `O=C(O)c1ccc2nc(CN3CC=C(c4nccc(NCc5ccc(Cl)cc5F)n4)CC3)n(C[C@@H]3CCO3)c2c1` [Compound 124, (S)-2-((4-(4-((4-chloro-2-fluorobenzyl)amino)pyrimidin-2-yl)-5,6-dihydropyridin-1(2H)-yl)methyl)-1-(oxetan-2-ylmethyl)-1H-benzo[d]imidazole-6-carboxylic add], the half-maximal effective concentration (EC50) is at most 1000 nM.
With `O=C(O)c1ccc2nc(CN3CC=C(c4ccnc(NCc5ccc(Cl)cc5F)n4)CC3)n(C[C@@H]3CCO3)c2c1` [Compound 125, (S)-2-((4-(2-((4-chloro-2-fluorobenzyl)amino)pyrimidin-4-yl)-3,6-dihydropyridin-1(2H)-yl)methyl)-1-(oxetan-2-ylmethyl)-1H-benzo[d]imidazole-6-carboxylic add], the EC50 was at most 150 nM.
